Data: US12611470B2, “Chromatin-opening element for stable long term gene expression” (CZ Biohub SF, LLC, priority 2019, dated 2026)

Legend:
Transduced P19 cells = test: Epigenetic effector experiments: rescue of GFP expression in silenced transduced cells; format: cell-based, mouse; conditions: for reactivation of GFP expression: all examined populations, range of concentrations; for silenced cells rescued: RSV promoter-only construct, 24 h treatment
Protocol: GFP expression is rescued by treatment with DNA methylation inhibitor 5-aza-cytidine (5-aza) in day 18 UCOE-RSV cells from the lentiviral silencing experiment. Cells were replica plated at day 16, specified concentrations of 5-aza were introduced 24 hours later (with exception of control), and cells were passaged and assayed via flow cytometry 24 hours after chemical introduction for % GFP+ cells. Data is reported as mean±SD from three biological replicates.
GFP expression is rescued by treatment with HDAC inhibitor trichostatin A (TSA) in day 24 UCOE-RSV cells from the lentiviral silencing experiment. Cells were replica plated at day 22, specified concentrations of TSA were introduced 24 hours later (with exception of control), and cells were passaged and assayed via flow cytometry 24 hours after chemical introduction for % GFP+ cells. Data is reported as mean f SD from three biological replicates.
Cells were replica plated at day 16, specified concentrations of 5-aza were introduced 24 hours later (with exception of control), and cells were passaged and assayed via flow cytometry 24 hours after chemical introduction for % GFP+ cells. Data is reported as mean±SD from three biological replicates. In the graph, data is shown from left to right for each construct: no treatment, 2 μM 5-aza, 10 μM 5-aza. […] Cells were replica plated at day 22, specified concentrations of TSA were introduced 24 hours later (with exception of control), and cells were passaged and assayed via flow cytometry 24 hours after chemical introduction for % GFP+ cells. Data is reported as mean f SD from three biological replicates. In the graph, data is shown from left to right for each construct: no treatment, 0.05 μM TSA, 0.1 μM TSA. […] Cells were replica plated at day 19, treated with 0.1 μM TSA or 10 μM 5-aza (with exception of control) 24 hours later, and cells were passaged and assayed via flow cytometry 24 hours after chemical introduction for % GFP+ cells. Data is reported as mean f SD from three biological replicates. In the graphs for FIG. 6C and FIG. 6D, the data is shown from left to right for each construct: no treatment, 0.1 μM TSA, 10 μM 5-aza.
Replica-plated cell populations were treated with varying concentrations of 5-aza-2′-deoxycytidine (Sigma-Aldrich, A3656) or Trichostatin A (Sigma-Aldrich, T1952) 24 hours after passaging. TSA was purchased as a readymade 5 mM solution in DMSO, which was then diluted to a 0.05 μM or 0.1 μM concentration in P19 growth media. 5 mg of 5-aza-2′-deoxycytidine was dissolved in 1 mL of 1:1 acetic acid: water to make a 21.9 mM stock solution, which was then diluted in P19 growth media to 2 μM or 10 μM. Cells were assayed through flow cytometry after 24 hours. […]

P19 cells = test: Standalone (intrinsic) promoter activity screen, UCOE-GFP construct lacking the Ef1a promoter; format: cell-based, mouse; conditions: promoterless GFP construct, after two weeks of antibiotic selection
Text: A schematic representation of the expression construct in which the candidate region (UCOE) is inserted upstream of the GFP gene in the absence of any other promoter sequences as used is shown as an inlay. As positive controls, the Ef1α promoter, the 2.2 kB A2UCOE sequence, and the 1.2 kB reverse orientation sequence 3′UCOE, were cloned into the same reporter construct as the candidate sequences. The percent GFP positive in the population was monitored as a metric for gene expression by flow cytometry analysis with each passage (% GFP). Stably transfected cells were assayed for % GFP+ and median fluorescent intensity (normalized to Ef1a promoter control). Data is reported as mean±SD from biological duplicates.
P19 cells were seeded at 25,000 cells/well in 12 well plates. 24 h after seeding, cells were transfected using Lipofectamine™ 2000 transfection reagent (Thermo Fisher) according to the manufacturer's instructions using 500 ng DNA/well and 2.5 μL of Lipofectamine per well. 24 hours after transfection, selection was initiated with 1 μg/mL puromycin (Sigma-Aldrich) in regular growth media and, from then on, cells were passaged at 1:15 or 1:20 dilutions whenever cells were 80-90% confluent (every 2-3 days) with frequent refreshing of puromycin-containing media to clear dead cells. After approximately 14-16 days, remaining cells were assumed to be stably transfected and were changed to regular growth media to initiate silencing experiments. During silencing experiments, the P19 cells were passaged every 2-3 days and re-seeded at 15,000 cells/well.
Fluorescence data throughout silencing experiments was obtained using a MACSQuant® VYB flow cytometer (Miltenyi Biotec). EGFP was measured through the 488-nm laser and 525/50 nm band pass filter. Flow cytometry data was analyzed using the FlowJo™ single cell flow cytometry analysis software (Tree Star). After being gated for singlets and viability, GFP+ gates in FlowJo were drawn such that a non-transfected or non-transduced P19 cell population was at 1% GFP+. Median values reported are of cells within the GFP+ gate, both % GFP positive and median are reported with the standard deviation of biological replicates.
As A2UOCE dually functions as a protective regulatory element and a universal promoter, the candidate UCOEs were further screened for standalone promoter activity. A similar experiment as the aforementioned screen was performed using a similar expression construct that lacked the Ef1a promoter. This construct was used to assess whether the candidate sequences could drive reporter expression and act as stand-alone functional promoters. Candidates were compared to the positive control of the EF1a promoter, which had ˜70% GFP+ cells after two weeks of antibiotic selection, showing a distinct positive population in the fluorescence histogram. The GFP+ gate (i.e., flow cytometry fluorescence threshold for GFP+ cells) was set to encompass 1% of untransfected cells and then applied to all samples. […] Such a result appears as a bimodal distribution on a histogram, with a peak below the gate threshold (i.e., GFP negative cell population) and a peak above it (i.e., the distinct GFP positive population mentioned above). […] In this study, a % GFP+ of at least 50% is considered to reflect the existence of a second population in the histograms, and thus a binary indicator of promoter function. […] The median GFP intensity of the GFP+ population was used a measure of the strength of the promoter, and normalized to the Ef1a positive control as shown in FIG. 2C.
This aligns with previous observations that the RNPA2B1 promoter is much stronger than that of CBX3 (Zhang, F., et al. (2010) Mol Ther, 18, 1640-1649 (7)). However, the RNPA2B1 promoter in A2UCOE is only 30% as strong as the EF1α promoter. […]

Molecule | reactivation of GFP expression (Transduced P19 cells) | silenced cells rescued (Transduced P19 cells; highest dose of TSA, day 24 cells) | silenced cells rescued (Transduced P19 cells; highest dose of 5-aza, day 18 cells) | % GFP+ cells (P19 cells) | % GFP+ cells, representative flow cytometry example (P19 cells; one representative example)
CC(/C=C/C(=O)NO)=C\[C@@H](C)C(=O)c1ccc(N(C)C)cc1 [TSA, trichostatin A] | dose-dependent recovery of GFP expression | about 25% | – | – | –
Nc1ncn([C@@H]2O[C@H](CO)[C@@H](O)[C@H]2O)c(=O)n1 [Candidate 5-aza, 5-azacytidine] | dose-dependent increase in % GFP positive cells | – | 63% | – | –
EF1a promoter: Elongation Factor 1 promoter, positive control for promoter activity (nucleic acid, Rous sarcoma virus) DNA: AATGTAGTCTTATGCAATACTCTTGTAGTCTTGCAACATGGTAACGATGAGTTAGCAACATGCCTTACAAGGAGAGAAAAAGCACCGTGCATGCCGATTGGTGGAAGTAAGGTGGTACGATCGTGCCTTATTAGGAAGGCAACAGACGGGTCTGACATGGATTGGACGAACCACTGAATTCCGCATTGCAGAGATATTGTATTTAAGTGCCTAGCTCGATACAATAAACGCCATTTGACCATTCACCACATTGGTGTGCACC | – | – | – | ~70% | 74.2%
